# Values joined by “and” are separate entries in the source; they are usually repeats but may differ in a detail not shown here. Identical values can stand only once.
# Tests used:
# U87-MG and U251-MG cells = assay: Immunofluorescence of pH3 and Cleaved Caspase-3; format: cell-based, human; details: U87-MG and U251-MG, 1, 5 and 10 μM
# Description: (§1) Immunofluorescence assays were performed following standard procedures. Cells were seeded at a density of 2 × 10^4 cells/well in 8-well immunofluorescence chambers (LabTek Thermo) and incubated overnight before treating with increasing concentrations of DDI199. After 48 h, cells were fixed with 4% PFA. Primary antibodies against phosphohistone H3 (pH3) (ab14955, abcam), Cleaved Caspase 3 (AF385, R&D Systems), Ki67 (ab15580, abcam) and PARP1 (ab32064, abcam) were used. Secondary antibodies were Alexa Fluor anti-mouse (A21422, Invitrogen) and Alexa Fluor anti-rabbit (A31572, Invitrogen), and chromatin was stained with DAPI (D9541, Sigma-Aldrich). Axio Observer 7 epifluorescence microscope was used to take pictures, which were later quantified in Qupath.
# GNS166 cells [1] = assay: Immunofluorescence of pH3, Cleaved Caspase 3, Ki67, PARP1; format: cell-based, human; details: for pH3-positive cells: control 3%
# Description: as §1
# glioma cells = assay: MTT cell viability, summary for glioma cells; format: cell-based; details: Homo sapiens, 72 h, summary statement, read-out: IC50 cell viability in different glioma cells
# Description: MTT assay was used to study cell viability. For that, cells were seeded at a density of 1.5 × 10^3 cells/well in 96-well plates, incubated overnight and then treated with increasing concentrations of DDI199. After 72 h of treatment, MTT absorbance was measured at 570 nm. GraphPad Prism software was used to analyze results and calculate IC50 values.
# U87-MG cells [2] = assay: Subcutaneous U87-MG tumor growth, single treatment; format: in vivo, athymic nude-Foxn1nu mice; details: day 34, 100 µM intratumoral
# Description: (§2) For tumor growth experiments, 5 × 10^5 U87-MG cells were subcutaneously injected into two bottom flanks of athymic nude-Foxn1^nu mice, and once tumors reached a size of 25-50 mm^3, mice were sorted into groups taking into account gender and tumor size. Afterwards, mice were intratumorally treated with vehicle, SAHA 100 µM or DDI199 100 µM following a schedule of 5 days on and 2 days off. In combined treatment, mice were treated intraperitoneally with 0.5 mg/Kg of TMZ for 5 days and intratumorally following a schedule of 5 days on and 2 days off with vehicle, SAHA 100 µM or DDI199 100 µM. After 4 weeks of treatment, some mice were kept for washout experiment, while the rest were sacrificed and tumors were extracted for immunohistochemistry and to disaggregate for reinjection and oncosphere formation studies. For reinjection assays, 1.5 × 10^5 cells were subcutaneously injected and tumor size was periodically measured. Once tumors reached end-point criteria, they were extracted for immunohistochemical analysis. An external caliper was used for tumor size measurement and the tumor volume was estimated using the formula V = L · W^2 · 0.5 (where L is tumor length and W is the tumor width).
# GNS166 cells [3] = assay: Cell cycle analysis by flow cytometry; format: cell-based, human; details: for Cell subpopulation in Sub G1: non-treated 1.9%; for Cell subpopulation in G2/M phase: non-treated 25%
# Description: Cells were harvested using accutase and washed with PBS. 1·10^6 cells were fixed with 70% cold ethanol at −20 °C for at least 24 h, and incubated with 0.5% Triton X-100 and 25 µg/mL RNase A in PBS for 30 min at room temperature. Then, DNA was stained with […] propidium iodide for 15 min and samples were analyzed using a CytoFLEX flow cytometer (Beckman Coulter Co.).
# recombinant hMAO-A = biological target: T1, recombinant hMAO-A (Homo sapiens, UniProt P21397); assay: MAO-A inhibition (Ampliflu Red/peroxidase, tyramine); format: biochemical; details: 10 µM compound; read-out: MAO-A inhibition percentage
# T1 construct: purchased Sigma-Aldrich
# Description: (§3) The inhibitory capacity of DDI199 on HDACs was studied as previously described. The capacity of DDI199 to inhibit MAOs was studied by mimicking the reaction occurring in cells. Briefly, inhibitor solution containing 10 µM of DDI199 or reference compound was incubated for 30 minutes at 37 °C together with the enzyme solution, containing either recombinant hMAO-A (Sigma-Aldrich) at 0.5 U/mL or hMAO-B (Sigma-Aldrich) at 1.5 U/mL. 200 U/mL horseradish peroxidase (Sigma-Aldrich), 20 mM Ampliflu Red (Sigma-Aldrich) and 100 mM tyramine hydrochloride (Sigma-Aldrich) were then added and absorbance at 570 nm was measured every 5 minutes for 30 minutes. Percentage of inhibition was estimated from these values.
# GNS179 cells = assay: Immunofluorescence of pH3, Cleaved Caspase 3; format: cell-based, human; details: for pH3-positive cells: control […]
# Description: as §1
# HDAC6 = HDAC6 (Homo sapiens, UniProt Q9UBN7); assay: HDAC6 enzyme inhibition; format: biochemical; details: read-out: HDAC inhibition IC50 HDAC6
# Description: as §3
# U87-MG cells [4] = assay: Western blot of HDAC6, HDAC1, acetyl α-tubulin, acetyl H3; format: cell-based, human
# Description: (§4) Protein lysates were resolved using sodium dodecyl sulfate-polyacrylamide gel electrophoresis. Primary antibodies against HDAC1 (Ab109411, abcam), HDAC6 (7558S, Cell Signaling), acetyl H3 (9649, Cell Signaling), acetyl α-tubulin (Ab24610, abcam), acetylated-Lysine (9441, Cell Signaling) and β-actin (A5441, Sigma-Aldrich) were used. Membranes were then incubated with the corresponding anti-rabbit (7074S, Cell Signaling) or anti-mouse (7076S, Cell Signaling) secondary antibody conjugated to horseradish peroxidase (HRP), and NOVEX ECL Chemi Substrate (ThermoFisher) or SuperSignal West Femto Maximum Sensitivity Substrate (ThermoFisher) was used for protein detection by iBright imaging system.
# GNS166 cells [5] = assay: as above; format: cell-based, human; details: U87-MG and glioma stem cells (GNS166)
# Description: as §4
# U87-MG tumor cells [6] = assay: Re-injection (regrowth) of cells from treated tumors; format: in vivo, athymic nude-Foxn1nu mice
# Description: as §2
# U87-MG tumor cells [7] = assay: Oncosphere formation from disaggregated treated tumors; format: cell-based
# Description: For oncosphere formation assay, cells were cultured in non-treated 48-well plates in DMEM/F12 medium supplemented with EGF and FGF and fresh media was added every 2 days. After 7 days, oncosphere formation was documented and the number of spheres was quantified using Qupath.
# as §2, with “An external caliper was used for tumor size measurement and the tumor volume was estimated using the formula V = L · W^2 · 0.5 (where L is tumor length and W is the tumor width).” left out
# Sequence of HDAC6 (Q9UBN7 whole entry): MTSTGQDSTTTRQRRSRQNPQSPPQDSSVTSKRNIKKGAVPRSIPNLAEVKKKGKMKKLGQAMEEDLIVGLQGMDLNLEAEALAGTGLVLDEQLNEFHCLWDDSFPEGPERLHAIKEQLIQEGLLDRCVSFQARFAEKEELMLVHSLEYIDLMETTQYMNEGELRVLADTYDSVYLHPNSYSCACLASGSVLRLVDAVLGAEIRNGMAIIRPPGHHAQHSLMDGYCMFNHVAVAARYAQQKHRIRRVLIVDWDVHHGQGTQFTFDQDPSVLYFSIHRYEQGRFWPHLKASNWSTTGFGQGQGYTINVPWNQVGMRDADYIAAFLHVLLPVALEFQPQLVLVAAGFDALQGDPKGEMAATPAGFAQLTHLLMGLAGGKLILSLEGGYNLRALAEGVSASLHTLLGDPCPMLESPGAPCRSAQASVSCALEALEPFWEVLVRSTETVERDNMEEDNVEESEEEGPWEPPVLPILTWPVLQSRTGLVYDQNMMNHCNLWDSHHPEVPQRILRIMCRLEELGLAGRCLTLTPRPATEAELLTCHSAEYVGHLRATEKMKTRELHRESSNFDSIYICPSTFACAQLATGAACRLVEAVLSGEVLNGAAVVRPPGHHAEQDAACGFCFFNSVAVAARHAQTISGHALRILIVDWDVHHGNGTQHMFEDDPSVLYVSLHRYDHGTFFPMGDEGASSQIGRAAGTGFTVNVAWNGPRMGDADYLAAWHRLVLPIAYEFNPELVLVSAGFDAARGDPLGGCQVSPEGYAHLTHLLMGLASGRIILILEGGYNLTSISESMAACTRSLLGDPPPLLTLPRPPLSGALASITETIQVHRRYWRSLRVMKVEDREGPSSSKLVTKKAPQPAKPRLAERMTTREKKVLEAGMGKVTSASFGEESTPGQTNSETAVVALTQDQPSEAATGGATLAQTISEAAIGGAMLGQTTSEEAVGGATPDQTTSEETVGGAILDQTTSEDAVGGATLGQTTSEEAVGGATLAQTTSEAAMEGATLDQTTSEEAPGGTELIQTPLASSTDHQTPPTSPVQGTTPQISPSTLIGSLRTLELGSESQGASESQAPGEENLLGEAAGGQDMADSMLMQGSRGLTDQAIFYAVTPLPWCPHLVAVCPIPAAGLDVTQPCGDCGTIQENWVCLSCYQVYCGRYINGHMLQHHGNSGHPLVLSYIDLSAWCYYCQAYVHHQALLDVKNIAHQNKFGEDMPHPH
# T1 sequence (P21397 whole entry): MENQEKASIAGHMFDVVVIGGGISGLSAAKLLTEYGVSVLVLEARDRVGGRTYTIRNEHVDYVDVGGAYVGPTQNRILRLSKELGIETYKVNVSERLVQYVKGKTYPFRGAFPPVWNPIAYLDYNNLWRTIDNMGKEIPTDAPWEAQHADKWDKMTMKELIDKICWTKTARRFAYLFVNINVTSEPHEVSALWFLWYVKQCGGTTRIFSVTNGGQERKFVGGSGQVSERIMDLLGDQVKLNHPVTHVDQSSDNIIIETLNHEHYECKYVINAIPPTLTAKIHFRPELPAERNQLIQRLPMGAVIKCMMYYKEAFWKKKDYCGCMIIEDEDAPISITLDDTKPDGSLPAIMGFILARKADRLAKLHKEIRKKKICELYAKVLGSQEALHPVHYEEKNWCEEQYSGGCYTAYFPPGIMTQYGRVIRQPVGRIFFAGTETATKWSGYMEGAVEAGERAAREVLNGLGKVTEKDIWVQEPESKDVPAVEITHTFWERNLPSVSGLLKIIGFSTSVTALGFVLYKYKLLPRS
structure (smiles),measurement,setting,value
C#CCN(Cc1cc2cc(OCCCN3CCCCC3)ccc2n1S(=O)(=O)c1ccccc1)C(=O)CCCCCCC(=O)NO [DDI199],Caspase-3 positive cells,U87-MG and U251-MG cells,markedly increased
same,p-H3 positive cells,U87-MG and U251-MG cells,reduced
same,pH3-positive cells,"GNS166 cells [1]; GNS166, 1 µM",2%
same,Ki67 positive cells,"GNS166 cells [1]; GNS166, 5 µM",almost blocking completely
same,pH3-positive cells,"GNS166 cells [1]; GNS166, 5 µM",0.6%
same,pH3-positive cells,"GNS166 cells [1]; GNS166, 10 µM",0.1%
same,Cleaved Caspase-3-positive cells,"GNS166 cells [1]; GNS166, 1, 5 and 10 µM",increase
same,PARP-positive cells,"GNS166 cells [1]; GNS166, 1, 5 and 10 µM",dose-dependent induction of apoptosis
same,IC50,glioma cells,< 5000 nM
same,Reduction in tumor growth versus controls,U87-MG cells [2],~50%
same,Tumor weight at end-point,U87-MG cells [2],significantly lower than the controls and also of SAHA
same,Mean final tumor volume,"U87-MG cells [2]; 5 days on 2 days off, controls 800 mm^3",465 mm^3
same,Cell subpopulation in Sub G1,"GNS166 cells [3]; GNS166, 5 µM",7.2%
same,Cell subpopulation in G2/M phase,"GNS166 cells [3]; GNS166, 5 µM",35%
same,Cell subpopulation in Sub G1,"GNS166 cells [3]; GNS166, 10 µM",11.9%
same,Cell subpopulation in G2/M phase,"GNS166 cells [3]; GNS166, 10 µM",32%
same,inhibition at 10 µM,recombinant hMAO-A,35%
same,pH3-positive cells,"GNS179 cells; GNS179, 1 µM",2.4%
same,pH3-positive cells,"GNS179 cells; GNS179, 5 µM",0.8%
same,pH3-positive cells,"GNS179 cells; GNS179, 10 µM",0.11%
same,Cleaved Caspase-3-positive cells,"GNS179 cells; GNS179, 1, 5 and 10 µM",increase
same,IC50,HDAC6,95 nM and 90 nM
same,acetylated H3 level,"U87-MG cells [4]; U87-MG, 0.5, 1 and 10 µM",increased their levels with increasing concentrations
same,acetylated α-tubulin level,"U87-MG cells [4]; U87-MG, 0.5, 1 and 10 µM",increased their levels with increasing concentrations
same,HDAC1 protein level,"U87-MG cells [4]; U87-MG, western blot",decrease
same,HDAC6 protein level,"U87-MG cells [4]; U87-MG, western blot",did not alter
same,acetylated α-tubulin and acetylated H3 versus reference inhibitors,GNS166 cells [5],higher acetylated α-tubulin and acetylated H3 increase than SAHA and Tubastatin A
same,"Tumors reforming after re-injection, combined with TMZ",U87-MG tumor cells [6]; cells from TMZ + DDI199 treated tumors,1 tumor out of 3
same,Reduction of final tumor weight after re-injection versus control,U87-MG tumor cells [6]; cells from treated tumors,~70%
same,Reduction of tumor volume after re-injection versus control,U87-MG tumor cells [6]; cells from treated tumors,60%
same,Mean tumor volume after re-injection,"U87-MG tumor cells [6]; cells from treated tumors, controls over 500 mm^3",200 mm^3
same,Oncospheres formed by cells from treated tumors,"U87-MG tumor cells [7]; GSC medium, 7 days",fewer oncospheres
same,"Oncospheres from treated tumors, combined with TMZ",U87-MG tumor cells [7]; TMZ plus DDI199 versus control and TMZ-treated cells,significantly lower number of oncospheres

# Reference: paper PMC11971462, “Generation and validation of a novel multitarget small molecule in glioblastoma” (Cell Death & Disease, 2025)
